One series deals with OVCAR4. Kind of series: Cytotoxicity on panel of cell lines, TMRE viability (Example II.2). The following applies: Homo sapiens, OVCAR-4, 24 hours, mean, control = 1, read-out: cell viability relative to control, OVCAR4 (ovarian cancer). The series is classed as cell-based. In outline: (§1)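 Viability, measured by TMRE, is reported as the mean ratio of inhibitor-treated cells to DMSO controls. Treatment: 30 μM compound, 24 hours, standard culture conditions.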

Another series concerns A375. The description is as above. The series is classed as cell-based. The conditions noted are these: Homo sapiens, A-375, 24 hours, mean, control = 1, read-out: cell viability relative to control, A375 (melanoma). In outline:
as §1

A further series relates to PANC1. The description is as above. The class given is cell-based. The conditions noted are these: Homo sapiens, PANC-1, 24 hours, mean, control = 1, read-out: cell viability relative to control, PANC1 (pancreatic cancer). In a few lines: as §1
The next series concerns MCF-7. The description is as above. The following applies: Homo sapiens, MCF7, 24 hours, mean, control = 1, read-out: cell viability relative to control, MCF-7 (breast cancer). The series is classed as cell-based. In outline: as §1
The next series deals with Maver1. The series is described as above. The series is classed as cell-based. The conditions noted are these: Homo sapiens, 24 hours, mean, control = 1, read-out: cell viability relative to control, Maver1 (MCL). In outline: as §1
The test system of a further series is Nalm16. The description is as above. The class given is cell-based. The conditions noted are these: 24 hours, mean, control = 1, read-out: cell viability relative to control, Nalm16 (ALL). In a few lines:
as §1

In the next series the test system is MDA-MB-231. The series is described as above. The series is classed as cell-based. The following applies: Homo sapiens, 24 hours, mean, control = 1, read-out: cell viability relative to control, MDA-MB-231 (breast cancer). In outline: as §1
A further series deals with K562. Described as above. The class given is cell-based. The conditions noted are these: Homo sapiens, 24 hours, mean, control = 1, read-out: cell viability relative to control, K562 (CML). In outline: as §1
The next series has as its system PC3. Described as above. The following applies: Homo sapiens, PC-3, 24 hours, mean, control = 1, read-out: cell viability relative to control, PC3 (prostate cancer). The series is classed as cell-based. In outline:
as §1

The subject of the next series is HL60. Described as above. The following applies: Homo sapiens, HL-60, 24 hours, mean, control = 1, read-out: cell viability relative to control, HL60 (AML). The class given is cell-based. In outline: as §1
In the next series the test system is BL-41. Described as above. The class given is cell-based. The conditions noted are these: Homo sapiens, 24 hours, mean, control = 1, read-out: cell viability relative to control, BL-41 (BL). In outline:
as §1

The test system of another series is HEPG2. Described as above. The class given is cell-based. The conditions noted are these: Homo sapiens, 24 hours, mean, control = 1, read-out: cell viability relative to control, HEPG2 (hepatocellular carcinoma). In a few lines:
as §1

The next series concerns SUDHL. The description is as above. The class given is cell-based. The conditions noted are these: 24 hours, mean, control = 1, read-out: cell viability relative to control, SUDHL (DLBCL). In outline: as §1
For a further series, the system named is WSU-NHL. The series is described as above. The series is classed as cell-based. The conditions noted are these: Homo sapiens, 24 hours, mean, control = 1, read-out: cell viability relative to control, WSU-NHL (FL). In outline:
as §1

Another series has as its system Mino. Described as above. The conditions noted are these: Homo sapiens, 24 hours, mean, control = 1, read-out: cell viability relative to control, Mino (MCL). The class given is cell-based. In a few lines: as §1
A further series deals with primary CLL. The description is as above. The series is classed as cell-based. The conditions noted are these: Homo sapiens, 24 hours, mean, control = 1, read-out: cell viability relative to control, primary CLL.
The next series concerns MEC-1. The series is described as above. The series is classed as cell-based. The following applies: Homo sapiens, MEC1, 24 hours, mean, control = 1, read-out: cell viability relative to control, MEC-1 (CLL). In outline:
as §1

For another series, the system named is MIA-PA-CA. Described as above. The conditions noted are these: Homo sapiens, MIA PaCa-2, 24 hours, mean, control = 1, read-out: cell viability relative to control, MIA-PA-CA (pancreatic cancer). The class given is cell-based. In a few lines:
as §1

The test system of series [1] is primary CLL cells. Kind of series: Cytotoxicity, TMRE flow cytometry viability, primary CLL cells (Example II.1). The following applies: Homo sapiens, CLL cell, 6 hours, TMRE positive cells normalized to control, ratio to PF670462, <1 = higher cytotoxicity than PF670462, read-out: Viability of cells, Compound of formula I (100 μM), relative to PF670462 (100 μM), CLL primary cells. The class given is cell-based. (In general: A flow cytometer gives signals particle by particle.)

Series [2] has as its system primary CLL cells. The conditions noted are these: human, 6 h, 30 µM.
Series [3] is described as follows: Specificity of cytotoxic activity, TMRE viability, primary nonmalignant control cells (Example II.4). The class given is cell-based. The conditions noted are these: human, N = 4, read-out: Viability - mean % of control, Primary healthy cells.
In series [4] the test system is Maver-1 cells (mantle cell lymphoma). Description: Cytotoxicity, TMRE flow cytometry viability, Maver-1 cells (Example II.1). The following applies: Homo sapiens, Maver1, 24 hours, TMRE positive cells normalized to control, ratio to PF670462, <1 = higher cytotoxicity than PF670462, read-out: Viability of cells, Compound of formula I (100 μM), relative to PF670462 (100 μM), Maver-1 cells (mantle cell lymphoma). The class given is cell-based.

Series [5] deals with primary CLL cells. Kind of series: Specificity of cytotoxic activity, TMRE viability, primary CLL cells (Example II.4). The following applies: for dose-dependent cytotoxic effect / apoptosis of primary CLL cells (FIG. 1): 6 h, indicated doses of inhibitors; for selective toxicity towards cancer cells vs nonmalignant controls (FIG. 4, Table 3): primary CLL cells vs healthy cells.

Series [6] concerns primary CLL cells. Description: Induction of apoptosis, western blotting of cleaved PARP in primary CLL cells. The following applies: 10 μM, overnight, listed as preparatory example 3. The class given is cell-based, human.

This note sets out measurements from US11498920B2, “4-(1H-imidazol-5-yl)-1H-pyrrolo[2, 3-b] pyridines for use in the treatment of leukaemias, lymphomas and solid tumors” (MASARYKOVA UNIVERZITA, priority 2018, dated 2022).

The structures appear in SMILES notation. Entries after “also recorded” stand apart in the source; their conditions may differ. Read-outs that look alike come from different tables or passages of the source.

By viability is commonly meant a read-out of living cells in per cent, often relative to untreated cells. Regarding `Nc1nccc(-c2c(-c3ccc(F)cc3)ncn2C2CCCCC2)n1` [PF670462, reference compound], the viability at 30 µM in the series on OVCAR4 amounted to 95%; in the series with A375 it was 94%; in the series on PANC1 it was 93%; with MCF-7 it was 55%; in the series with Maver1, 85%; with Nalm16 it was 94%. Further, the viability at 30 µM turned out to be 99% with MDA-MB-231; 97% in the series with K562; 115% in the series with PC3; 98% in the series on HL60; 82% with BL-41; 78% with HEPG2. Also, the viability at 30 µM with SUDHL stood at 93%; in the series with WSU-NHL, 110%; in the series on Mino, 84%; with primary CLL it was 103%; with MEC-1, 92%; in the series with MIA-PA-CA it was 104%. The viability at 100 µM (with primary CLL cells [1]; in [4]) was 100% throughout. For the same molecule, the “Viability - mean % of control, Primary CLL” value in the series on primary CLL cells [2] is reported as 98.3% (N = 8). Besides, in [3], the viability at 6 h, 30 µM came to 95.5%. Besides, the “induction of apoptosis in primary CLL cells or nonmalignant control (healthy) cells” value in the series with primary CLL cells [5] (30 μM, 6 hours) is on record as “not able to induce apoptosis”. Further, the “dose-dependent cytotoxic effect / apoptosis of primary CLL cells (FIG. 1)” value in the series with primary CLL cells [5] was “lacks this effect”.
In the case of `Fc1ccc(-c2ncn(C3CCCCC3)c2-c2ccnc3[nH]ccc23)cc1` [Preparative Example 3, 4-(1-cyclohexyl-4-(4-fluorophenyl)-1H-imidazol-5-yl)-1H-pyrrolo[2,3-b]pyridine], the viability at 30 µM in the series on OVCAR4 turned out to be 73%; in the series on A375, 64%; with PANC1 it was 65%; in the series on MCF-7 it was 53%; in the series on Maver1 it was 54%; in the series with Nalm16, 32%. For the same molecule, the viability at 30 µM was found to be 69% with MDA-MB-231; 81% with K562; 72% in the series with HL60; 17% in the series with BL-41; 47% with HEPG2; 18% in the series on SUDHL. In addition, the viability at 30 µM with Mino stood at 38%; in the series on primary CLL, 69%; in the series with MEC-1, 43%; in the series on MIA-PA-CA it was 61%. Also, the viability at 100 µM turned out to be 30% with primary CLL cells [1] and 27% in series [4]. In addition, in [3], the viability at 6 h, 30 µM is 80.9%. The “cleaved PARP, marker of apoptosis (FIG. 2)” value with primary CLL cells [6] was “Increased PARP cleavage; also recorded: increase of cleaved PARP”. Besides, the “Viability - mean % of control, Primary CLL” value with primary CLL cells [5] (30 μM, 6 hours, N = 8) is given as 37.3% (N = 8). In addition, the “selective toxicity towards cancer cells vs nonmalignant controls (FIG. 4, Table 3)” value was “significantly higher cytotoxic effects towards cancer cells than nonmalignant controls” with primary CLL cells [5] (30 μM, 6 hours) and “selective towards cancer cells” in the series on primary CLL cells [5] (30 μM, 6 hours, listed as prep. example 3). For the same molecule, the “dose-dependent cytotoxic effect / apoptosis of primary CLL cells (FIG. 1)” value with primary CLL cells [5] (listed as preparatory example 3) was “induced dose-dependently”.
Regarding `Cc1cc2c(-c3c(-c4ccc(F)cc4)ncn3C3CCCCC3)ccnc2[nH]1` [Preparative Example 39, 4-(1-cyclohexyl-4-(4-fluorophenyl)-1H-imidazol-5-yl)-2-methyl-1H-pyrrolo[2,3-b]pyridine], the viability at 30 µM with OVCAR4 was 42%; with A375, 16%; in the series with PANC1, 44%; in the series on Maver1 it was 2%; with Nalm16 it was 6%; in the series with MDA-MB-231, 71%. In addition, the viability at 30 µM in the series with K562 was found to be 73%; in the series on PC3 it was 29%; in the series with HL60, 62%; in the series with BL-41 it was 10%; in the series on HEPG2, 55%; in the series on SUDHL it was 24%. For the same molecule, the viability at 30 µM in the series on WSU-NHL came to 88%; in the series with Mino it was 26%; in the series with primary CLL, 48%; with MEC-1 it was 22%; with MIA-PA-CA, 56%. Moreover, the viability at 100 µM worked out at 10% in the series on primary CLL cells [1] and 2% in [4].
